Measurements taken from PubChem BioAssay AID270 (DTP/NCI, 2004).
Several values for one entry are separate records, joined by “and”; a condition that tells them apart may be missing. Equal entries are not always repeated. Results filed as inconclusive are left out.

Tested on: BDF1 mice, s.c. Lewis lung carcinoma, T/C %
Experiment: NCI In Vivo Anticancer Drug Screen. Data for tumor model Lewis Lung Carcinoma (subcutaneous) in B6D2F1 (BDF1) mice
Outline: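 The value reflects a ratio in which the treated cohort's survival time or tumour size is compared against mice receiving only vehicle.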

CS(=O)(=O)OCC(O)C(O)C(O)C(O)COS(C)(=O)=O (centres undefined)
T/C (endpoint: mean tumor weight, dose: 50.0 mg/kg/injection, schedule: Q01DX011 (ip), vehicle: saline, higher = larger tumour): 86 % of control and 97 % of control
T/C (endpoint: mean tumor weight, dose: 200.0 mg/kg/injection, schedule: Q01DX011 (ip), vehicle: saline, higher = larger tumour): 54 % of control and 60 % of control
T/C (endpoint: mean tumor weight, dose: 400.0 mg/kg/injection, schedule: Q01DX011 (ip), vehicle: saline, higher = larger tumour): 58 % of control

CN[C@@H](C)[C@@H](O)c1ccccc1
T/C (endpoint: mean tumor weight, dose: 25.0 mg/kg/injection, schedule: Q01DX011 (ip), vehicle: carboxymethylcellulose (CMC), higher = larger tumour): 123 % of control
T/C (endpoint: mean tumor weight, dose: 100.0 mg/kg/injection, schedule: Q01DX011 (ip), vehicle: carboxymethylcellulose (CMC), higher = larger tumour): 85 % of control
T/C (endpoint: mean tumor weight, dose: 200.0 mg/kg/injection, schedule: Q01DX011 (ip), vehicle: carboxymethylcellulose (CMC), higher = larger tumour): 72 % of control

Cc1ccc2c(Nc3ccc(NS(C)(=O)=O)cc3)c3ccccc3nc2c1C
T/C (endpoint: median survival time, dose: 10.0 mg/kg/injection, schedule: Q01DX009 (ip), vehicle: other, higher = longer survival): 98 % of control
T/C (endpoint: median survival time, dose: 40.0 mg/kg/injection, schedule: Q01DX009 (ip), vehicle: other, higher = longer survival): 124 % of control

C/C=C(\C)C(=O)OC1C(C)C2(O)C(C=C(CO)CC3(O)C(=O)C(C)=CC32)C2C(C)(C)C12OC(=O)CCCCCCCCC (centres undefined)
T/C (endpoint: median survival time, dose: 0.13 mg/kg/injection, schedule: Q01DX009 (ip), vehicle: saline + alcohol, higher = longer survival): 103 % of control
T/C (endpoint: median survival time, dose: 0.25 mg/kg/injection, schedule: Q01DX009 (ip), vehicle: saline + alcohol, higher = longer survival): 95 % of control
T/C (endpoint: median survival time, dose: 0.5 mg/kg/injection, schedule: Q01DX009 (ip), vehicle: saline + alcohol, higher = longer survival): 92 % of control

Cc1cc(O)c2cc3c(O)c(O)ccc3cc2c1
T/C (endpoint: mean tumor weight, dose: 0.25 mg/kg/injection, schedule: Q01DX011 (ip), vehicle: saline, higher = larger tumour): 86 % of control
T/C (endpoint: mean tumor weight, dose: 0.5 mg/kg/injection, schedule: Q01DX011 (ip), vehicle: saline, higher = larger tumour): 116 % of control
T/C (endpoint: mean tumor weight, dose: 1.0 mg/kg/injection, schedule: Q01DX011 (ip), vehicle: saline, higher = larger tumour): 62 % of control
T/C (endpoint: mean tumor weight, dose: 2.0 mg/kg/injection, schedule: Q01DX011 (ip), vehicle: saline, higher = larger tumour): 31 % of control and 52 % of control
T/C (endpoint: mean tumor weight, dose: 4.0 mg/kg/injection, schedule: Q01DX011 (ip), vehicle: saline, higher = larger tumour): 36 % of control

C[N+](C)(C)CCOC(=O)/C=C/c1cnc[nH]1
T/C (endpoint: median survival time, dose: 5.0 mg/kg/injection, schedule: Q01DX009 (ip), vehicle: saline, higher = longer survival): 102 % of control
T/C (endpoint: median survival time, dose: 10.0 mg/kg/injection, schedule: Q01DX009 (ip), vehicle: saline, higher = longer survival): 94 % of control
T/C (endpoint: median survival time, dose: 20.0 mg/kg/injection, schedule: Q01DX009 (ip), vehicle: saline, higher = longer survival): 95 % of control

N=[N+]=CC(=O)OCC(N)C(=O)O (centres undefined)
T/C (endpoint: mean tumor weight, dose: 2.5 mg/kg/injection, schedule: Q01DX011 (ip), vehicle: saline, higher = larger tumour): 76 % of control and 81 % of control
T/C (endpoint: mean tumor weight, dose: 10.0 mg/kg/injection, schedule: Q01DX011 (ip), vehicle: saline, higher = larger tumour): 24 % of control and 31 % of control

CCCCCCCCCCCCNCCCCCCCCCCCC
T/C (endpoint: mean tumor weight, dose: 2.5 mg/kg/injection, schedule: Q01DX011 (ip), vehicle: other, higher = larger tumour): 78 % of control
T/C (endpoint: mean tumor weight, dose: 5.0 mg/kg/injection, schedule: Q01DX011 (ip), vehicle: other, higher = larger tumour): 67 % of control
T/C (endpoint: mean tumor weight, dose: 10.0 mg/kg/injection, schedule: Q01DX011 (ip), vehicle: other, higher = larger tumour): 55 % of control

O=S(=O)(O)c1cc(O)ccc1O
T/C (endpoint: mean tumor weight, dose: 133.0 mg/kg/injection, schedule: Q01DX011 (ip), vehicle: saline, higher = larger tumour): 66 % of control
T/C (endpoint: mean tumor weight, dose: 300.0 mg/kg/injection, schedule: Q01DX011 (ip), vehicle: saline, higher = larger tumour): 99 % of control and 119 % of control
T/C (endpoint: mean tumor weight, dose: 600.0 mg/kg/injection, schedule: Q01DX011 (ip), vehicle: saline, higher = larger tumour): 67 % of control

CC(=O)O[C@H]1C(=O)[C@@]2(C)[C@H]([C@H](OC(=O)c3ccccc3)[C@]3(O)C[C@H](OC(=O)[C@H](O)[C@@H](NC(=O)c4ccccc4)c4ccccc4)C(C)=C1C3(C)C)[C@]1(OC(C)=O)CO[C@@H]1C[C@@H]2O
T/C (endpoint: median survival time, dose: 4.0 mg/kg/injection, schedule: Q01DX009 (ip), vehicle: Klucel (hydroxypropylcellulose) (HPC), higher = longer survival): 112 % of control
T/C (endpoint: median survival time, dose: 6.0 mg/kg/injection, schedule: Q01DX009 (ip), vehicle: Klucel (hydroxypropylcellulose) (HPC), higher = longer survival): 109 % of control
T/C (endpoint: median survival time, dose: 11.0 mg/kg/injection, schedule: Q04DX003 (ip), vehicle: Klucel (hydroxypropylcellulose) (HPC), higher = longer survival): 94 % of control
T/C (endpoint: median survival time, dose: 13.0 mg/kg/injection, schedule: Q01DX001 (ip), vehicle: Klucel (hydroxypropylcellulose) (HPC), higher = longer survival): 107 % of control
T/C (endpoint: median survival time, dose: 16.0 mg/kg/injection, schedule: Q04DX003 (ip), vehicle: Klucel (hydroxypropylcellulose) (HPC), higher = longer survival): 109 % of control
T/C (endpoint: median survival time, dose: 20.0 mg/kg/injection, schedule: Q01DX001 (ip), vehicle: Klucel (hydroxypropylcellulose) (HPC), higher = longer survival): 99 % of control
T/C (endpoint: median survival time, dose: 30.0 mg/kg/injection, schedule: Q01DX001 (ip), vehicle: Klucel (hydroxypropylcellulose) (HPC), higher = longer survival): 101 % of control
